Data published in patent US6562606B1, “Methods and compositions for disrupting the epithelial barrier function” (The Regents of the University of California, priority 1993, dated 2003).
Where a name gives a salt, the structure may show the parent alone. Read-outs that look alike come from different tables or passages of the source.

Experiments:
intact pig skin = assay: TEWL of intact pig skin under occlusion (Hilltop chamber), testosterone formulations; format: in vivo; details: for barrier integrity / barrier permeability (TEWL) vs occlusion and TS controls, in words: Tables 9-11; for 6 h Post TEWL (x baseline): 6 h after removal of formulation
hairless mice [1] = assay: Epidermal barrier disruption: marker (propylene glycol, cyclophenol) profile in stratum corneum by IR and tape-stripping; format: in vivo
Method: To determine the epidermal barrier disruption by application of fluindostatin, an animal testing was conducted in the manner as follows: Hairless mice (two animals, B and C) were topically pretreated with fluindostatin for 7 days. In a control group, animals (two) were only treated with a vehicle. […] The parameters for the vehicle in all of the experiments herein are as follows: […] N=14. After treatment, the skin surface was cleaned and stratum corneum allowed to recover to its normal state of hydration for 2 hours. An IR spectrum of the hydrophilic marker compound, propylene glycol, was recorded, and a single tape-stripping was conducted at the treated skin site. Another spectrum was recorded followed by the removal of a. second tape strip. The same sequence was repeated 10 times. FIGS. 4A, 4B show the test results. […] In essentially the same manner, cyclophenol (CP) was used as a.lipophilic marker. Tape-stripping was repeated 7 times after application of fluindostatin.

hairless mouse = assay: TEWL recovery after oleic acid treatment; format: in vivo; details: 30 μl of 1.5% fluindostatin or 0.25% TOFA in propylene glycol/ethanol 7:3, two hours after 5% oleic acid (FIG. 6A, 6B)
Method: A female hairless mouse, aged 8 weeks, was treated with oleic acid. After oleic acid treatment, fluindostatin and/or 5-tetradecyloxy-2-furancarboxylic acid (TOFA) was applied to the animal.
TEWL (trans-epidermal water loss) was measured before and after treatment at convenient time intervals when the animal was alert. An Evaporimeter (ServoMed) was used.
First, TEWL of the left (LHS) and right (RHS) dorsal sides was measured. Then, the animal was anesthetized by 0.25 ml chloral hydrate (CH) IP injection. At t=0, an aliquot of 30 μl oleic acid solution (5% in propylene glycol/ethanol 7:3 (v/v)) was applied directly to both sides of the animal (˜1.5×3 cm) using a Hamilton syringe. […] TEWL was measured thereafter every 2 or 3 hours.

hairless mice [2] = assay: TEWL (water permeability) 4 hours after application to acetone-treated skin; format: in vivo; details: for stratum corneum water permeability (TEWL), increase vs vehicle in words: statistical significance vs vehicle, concentrations and skin treatment as in Tables 2-7
[3] = Transdermal LHRH delivery: plasma level by radioimmunoassay, ratio to vehicle; details: ratio of LHRH plasma levels (RIA) after tested delivery compound(s) to vehicle; acid lipase vs its vehicle MES
[4] = topical; literature (J. Clin. Invest. 88, 1991); cited from earlier work
[5] = solitary agent, Conc 0.5 %, acetone-treated skin
[6] = solitary agent, Conc 1.0 %, acetone-treated skin
[7] = statistical significance vs vehicle, concentrations and skin treatment as in Tables 2-7
[8] = lidocaine, solitary enhancer Conc 0.5 %, acetone-treated skin

## CCCCCCCC/C=C\CCCCCCCC(=O)O[C@H]1CC[C@@]2(C)C(=CC[C@H]3[C@@H]4CC[C@H]([C@H](C)CCCC(C)C)[C@@]4(C)CC[C@@H]32)C1 [CHO, Cholesterol Oleate]
Intact pig skin; Table 9, 0.05 weight %, 24 h
  24 h TEWL (x baseline): 1.53 x baseline
Intact pig skin; Table 9, 0.05 weight %
  48 h TEWL (x baseline): 2.16 x baseline
  72 h TEWL (x baseline): 2.71 x baseline
Intact pig skin; intact pig skin
  barrier integrity / barrier permeability (TEWL) vs occlusion and TS controls, in words: comparable to or superior to both controls

## CCN(CC)CCCC(C)Nc1ccnc2cc(Cl)ccc12 (stereo not shown) [CQ, Chloroquine]
Intact pig skin; intact pig skin
  barrier integrity / barrier permeability (TEWL) vs occlusion and TS controls, in words: increase barrier permeability to TS to a degree significantly superior to that provided by either control at all time points

## CC(C)n1c(/C=C/C(O)CC(O)CC(=O)O)c(-c2ccc(F)cc2)c2ccccc21 (stereo not shown) [Fluindostatin]
Hairless mice [1]; PG and CP markers
  disruption of the stratum corneum barrier (both marker data sets): caused significant disruption of the stratum corneum barrier
Hairless mice [1]; tape-stripping repeated 7 times, vs vehicle control (FIG. 5A, 5B)
  cyclophenol (lipophilic marker) concentration profile in stratum corneum: a lower, constant concentration level of CP
Hairless mice [1]; topical pretreatment 7 days, IR spectra over 10 tape-strippings, vs vehicle control (FIG. 4A, 4B)
  propylene glycol (hydrophilic marker) concentration profile in stratum corneum: lower absolute levels of PG in the stratum corneum, and a constant concentration level of PG
Hairless mouse
  recovery of the barrier (TEWL) after oleic acid disruption: delay the recovery of the barrier
Hairless mice [2]; 4 h
  TEWL (T = 4 hours): 431 ± 46
Hairless mice [2]
  stratum corneum water permeability (TEWL), increase vs vehicle in words: significantly increased it

## CC[C@H](C)C(=O)O[C@H]1CCC=C2C=C[C@H](C)[C@H](CC[C@@H]3C[C@@H](O)CC(=O)O3)[C@H]21 [MEV, Mevastatin]
Intact pig skin; Table 9, 0.08 weight %, 24 h after first administration
  24 h TEWL (x baseline): 1.75 x baseline
Intact pig skin; Table 9, 0.08 weight %
  48 h TEWL (x baseline): 2.39 x baseline
  72 h TEWL (x baseline): 3.72 x baseline
Intact pig skin; Table 9, 0.12 weight %, 24 h
  24 h TEWL (x baseline): 1.79 x baseline
Intact pig skin; Table 9, 0.12 weight %
  48 h TEWL (x baseline): 2.75 x baseline
  72 h TEWL (x baseline): 3.72 x baseline
Intact pig skin; Table 10, 0.006 weight %
  6 h Post TEWL (x baseline): 1.24 ± 0.29 x baseline
  48 h TEWL (x baseline): 2.13 ± 0.38 x baseline
  72 h TEWL (x baseline): 1.75 ± 0.21 x baseline
Intact pig skin; Table 10, 0.006 weight %, 24 h
  24 h TEWL (x baseline): 1.55 ± 0.29 x baseline
Intact pig skin; Table 10, 0.10 weight %
  6 h Post TEWL (x baseline): 2.25 ± 0.8 x baseline
  48 h TEWL (x baseline): 3.77 ± 1.42 x baseline
  72 h TEWL (x baseline): 3.04 ± 0.86 x baseline
Intact pig skin; Table 10, 0.10 weight %, 24 h
  24 h TEWL (x baseline): 1.93 ± 0.58 x baseline
Intact pig skin; Table 10, 0.25 weight %
  6 h Post TEWL (x baseline): 1.90 ± 0.28 x baseline
  48 h TEWL (x baseline): 2.66 ± 1.00 x baseline
  72 h TEWL (x baseline): 2.43 ± 0.51 x baseline
Intact pig skin; Table 10, 0.25 weight %, 24 h
  24 h TEWL (x baseline): 1.47 ± 0.18 x baseline
Intact pig skin; intact pig skin
  barrier integrity / barrier permeability (TEWL) vs occlusion and TS controls, in words: decreased barrier integrity to a substantial degree over that provided by either control
Intact pig skin; intact pig skin, said to be shown in Table 11
  capacity to deliver testosterone (TS) vs both controls, in words: superior capacity of MEV to deliver testosterone (TS) over that of both controls

## CCCCCCCC/C=C\CCCCCCCC(=O)NCCO [N-oleoylethanolamine, N-Oleoylethanolamine]
Hairless mice [2]; [5]
  TEWL (T = 4 hours): 720 ± 229
Hairless mice [2]
  stratum corneum water permeability (TEWL), increase vs vehicle in words: very significantly increased water permeability
Intact pig skin; Table 9, 0.03 weight %, 24 h
  24 h TEWL (x baseline): 1.46 x baseline
Intact pig skin; Table 9, 0.03 weight %
  48 h TEWL (x baseline): 2.25 x baseline
  72 h TEWL (x baseline): 3.15 x baseline
Intact pig skin; Table 9, 0.10 weight %, 24 h
  24 h TEWL (x baseline): 1.67 x baseline
Intact pig skin; Table 9, 0.10 weight %
  48 h TEWL (x baseline): 2.45 x baseline
  72 h TEWL (x baseline): 3.68 x baseline
Intact pig skin; intact pig skin
  barrier integrity / barrier permeability (TEWL) vs occlusion and TS controls, in words: increases barrier permeability in a dose response manner

## CCCCCCCCCCCCCCOc1ccc(C(=O)O)o1 [TOFA, 5-tetradecyloxy-2-furancarboxylic acid]
Hairless mouse
  recovery of the barrier (TEWL) after oleic acid disruption: delay the recovery of the barrier
Hairless mice [2]; [6]
  TEWL (T = 4 hours): 520 ± 31
Hairless mice [2]
  stratum corneum water permeability (TEWL), increase vs vehicle in words: very significantly increased water permeability

## CC(C)CCC[C@@H](C)[C@H]1CC[C@H]2[C@@H]3CC=C4C[C@@H](OS(=O)(=O)O)CC[C@]4(C)[C@H]3CC[C@]12C [cholesterol sulfate, Cholesterol sulfate]
Hairless mice [2]; [6]
  TEWL (T = 4 hours): 508 ± 169
Hairless mice [2]
  stratum corneum water permeability (TEWL), increase vs vehicle in words: significantly increased it
[7]
  lidocaine delivery, increase vs vehicle in words: statistically very significant increase in lidocaine delivery

## O[C@H]1[C@H](O)[C@@H](O)[C@@H]2O[C@@H]2[C@@H]1O [conduritol-β-epoxide, Conduritol-β-epoxide]
Hairless mice [2]; frequently applied to intact skin
  water permeability (TEWL), increase vs vehicle in words: statistically significant increased lidocaine delivery and water permeability
Hairless mice [2]; solitary agent, Conc 4.0 %, intact skin, TID, total 7-8 doses
  TEWL (T = 4 hours): 184 ± 39
Hairless mice [2]; solitary agent, Conc 4.0 %, single application, acetone-treated skin
  TEWL (T = 4 hours): 253 ± 33
Hairless mice [2]
  stratum corneum water permeability (TEWL), increase vs vehicle in words: failing even nearly significantly to increase either water permeability or lidocaine delivery

## CCCC[C@@H](C)[C@@H](OC(=O)C[C@@H](CC(=O)O)C(=O)O)[C@H](C[C@@H](C)C[C@H](O)CCCC[C@@H](O)C[C@H](O)[C@H](C)N)OC(=O)C[C@@H](CC(=O)O)C(=O)O [fumonisin B1, Fumonisin B1]
[3]
  LHRH Delivery Ratio vs. Vehicle: 3.8
Hairless mice [2]; [5]
  TEWL (T = 4 hours): 440 ± 149
[8]
  Plasma Conc. (% dose/ml plasma): 0.24 ± 0.03 % dose/ml plasma
  Total Body Conc. (%): 14.58 ± 0.73%
[7]
  lidocaine delivery, increase vs vehicle in words: very significantly increased lidocaine delivery

## CC[C@H](C)C(=O)O[C@H]1C[C@@H](C)C=C2C=C[C@H](C)[C@H](CC[C@@H]3C[C@@H](O)CC(=O)O3)[C@H]21 [lovastatin, Lovastatin]
[4]
  recovery of barrier function, assessed as transepidermal water loss: impair the recovery of barrier function

## N[C@@H](CCl)C(=O)O [β-chloroalanine, β-Chloroalanine]
[4]
  recovery of barrier function, assessed as transepidermal water loss: slow barrier recovery
Hairless mice [2]; [6]
  TEWL (T = 4 hours): 263 ± 35
Hairless mice [2]
  stratum corneum water permeability (TEWL), increase vs vehicle in words: did not increase stratum corneum water permeability
[7]
  lidocaine delivery, increase vs vehicle in words: significant increase

## Bromophenacylbromide
Hairless mice [2]; solitary agent on intact skin
  water permeability (TEWL), increase vs vehicle in words: but not water permeability
Hairless mice [2]; solitary agent, Conc 0.15 %, intact skin
  TEWL (T = 4 hours): 98 ± 47
Hairless mice [2]; solitary agent, Conc 0.2 %, acetone-treated (prepermeabilized) skin
  TEWL (T = 4 hours): 690 ± 177
Hairless mice [2]
  stratum corneum water permeability (TEWL), increase vs vehicle in words: very significant increases of both lidocaine delivery and water permeability

## Gramicidin D [GD]
Intact pig skin; intact pig skin
  barrier integrity / barrier permeability (TEWL) vs occlusion and TS controls, in words: increase barrier permeability to TS to a degree significantly superior to that provided by either control at all time points

## N-Palmitoyl-DL-dihydroxysphingosine [N-palmitoyl-DL-hydroxysphingosine]
Hairless mice [2]; [5]
  TEWL (T = 4 hours): 793 ± 124
Hairless mice [2]
  stratum corneum water permeability (TEWL), increase vs vehicle in words: very significantly increased water permeability
mouse, in vivo
  Plasma Conc. (% dose/ml plasma): 0.21 ± 0.03 % dose/ml plasma
  Total Body Conc. (%): 6.88 ± 0.69%
  lidocaine delivery, increase vs vehicle in words: significantly increased it
